pEC50: −log10 of the molar value.
Experiments:
[1] = tested on: HIV-IIIb; assay: Antiviral assay in MT-2 / MT-4 cells infected with HIV-IIIb (CellTiter-Glo readout); assay type: cell-based; details: MT4, 120 h, 5 days, MT-2 or MT-4 cells not given
Procedure: For the antiviral assay utilizing MT-2 cells, 50 μl of 2× test concentration of 5-fold serially diluted compound in culture medium with 10% FBS was added to each well of a 96-well plate (9 concentrations) in triplicate. MT-2 cells were infected with HIV-IIIb at a multiplicity of infection (m.o.i) of 0.01 for 3 hours. Fifty microliters of infected cell suspension in culture medium with 10% FBS (˜1.5×10^4 cells) was then added to each well containing 50 μl of diluted compound. The plates were then incubated at 37° C. for 5 days. For the antiviral assay utilizing MT-4 cells, 20 μl of 2× test concentration of 5-fold serially diluted compound in culture medium with 10% FBS was added to each well of a 384-well plate (7 concentrations) in triplicate. MT-4 cells were next mixed with HIV-IIIb at an m.o.i. of 0.1 and 20 μl of virus/cell mixture (˜2000 cells) was immediately added to each well containing 20 μl of diluted compound. The plates were then incubated at 37° C. for 5 days. After 5 days of incubation, 100 μl of CellTiter-Glo™ Reagent (catalog #G7571, Promega Biosciences, Inc., Madison, Wis.) was added to each well containing MT-2 cells and 40 μl to each well containing MT-4 cells. Cell lysis was carried out by incubation at room temperature for 10 min and chemiluminescence was read.

[2] = Cytotoxicity assessment in uninfected MT-2 / MT-4 cells; assay type: cell-based; details: human, MT-2 or MT-4 cells not given
Procedure: For compound cytotoxicity assessment in MT-2 cells, the protocol was identical to that of the antiviral assay in MT-2 cells, except that uninfected cells and a 3-fold serial dilution of compounds were used. For cytotoxicity assessment in MT-4 cells, the protocol is identical to that of the antiviral assay in MT-4 cells, except that no virus was added. Cytotoxicity is expressed as CC50.

SMILES | pEC50 [1] | melting point [°C] | CC50 at 5 days [2] [µM]
Cc1cc(C#N)cc(C(=O)c2c(CC3CC3)c(C)[nH]c(=O)c2C(C)C)c1 [Example 1, 3-(5-Cyclopropylmethyl-3-isopropyl-6-methyl-2-oxo-1,2-dihydro-pyridine-4-carbonyl)-5-methyl-benzonitrile] | > 7.00 | 222 to 224 | 
Cc1[nH]c(=O)c(C(C)C)c(C(=O)c2cc(C#N)cc(C#N)c2)c1CC1CC1 [Example 2, 5-(5-Cyclopropylmethyl-3-isopropyl-6-methyl-2-oxo-1,2-dihydro-pyridine-4-carbonyl)-isophthalonitrile] | > 7.00 | 266 to 267 | 
Cc1[nH]c(=O)c(C(C)C)c(C(=O)c2cc(Cl)cc(C#N)c2)c1CC1CC1 [Example 3, 3-Chloro-5-(5-cyclopropylmethyl-3-isopropyl-6-methyl-2-oxo-1,2-dihydro-pyridine-4-carbonyl)-benzonitrile] | > 7.00 | 237 to 238 | 
Cc1cc(C#N)cc(C(=O)c2c(CC3(CO)CC3)c(C)[nH]c(=O)c2C(C)C)c1 [Example 5, 3-[5-(1-Hydroxymethyl-cyclopropylmethyl)-3-isopropyl-6-methyl-2-oxo-1,2-dihydro-pyridine-4-carbonyl]-5-methyl-benzonitrile] | > 7.00 |  | 
Cc1[nH]c(=O)c(C(C)C)c([S+]([O-])c2cc(C#N)cc(C#N)c2)c1CC1CC1 (stereo not shown) [Example 6, 5-(5-Cyclopropylmethyl-3-isopropyl-6-methyl-2-oxo-1,2-dihydro-pyridin-4-sulfinyl)-isophthalonitrile] | > 7.00 |  | > 100
Cc1cc(C#N)cc(Sc2c(CC3CC3)c(C)[nH]c(=O)c2C(C)C)c1 [Example 7, 3-(5-(cyclopropylmethyl)-3-isopropyl-6-methyl-2-oxo-1,2-dihydropyridin-4-ylthio)-5-methylbenzonitrile] | > 7.00 |  | 
Cc1cc(C#N)cc([S+]([O-])c2c(CC3CC3)c(C)[nH]c(=O)c2C(C)C)c1 (stereo not shown) [Example 8, 3-(5-(cyclopropylmethyl)-3-isopropyl-6-methyl-2-oxo-1,2-dihydropyridin-4-ylsulfinyl)-5-methylbenzonitrile] | > 7.00 |  | 
Cc1cc(C#N)cc(S(=O)(=O)c2c(CC3CC3)c(C)[nH]c(=O)c2C(C)C)c1 [Example 9, 3-(5-Cyclopropylmethyl-3-isopropyl-6-methyl-2-oxo-1,2-dihydro-pyridine-4-sulfonyl)-5-methyl-benzonitrile] | > 7.00 |  | > 69

Second part, led by results:

pEC50 [1] | melting point [°C] | SMILES | CC50 at 5 days [2] [µM]
> 7.00 |  | Cc1[nH]c(=O)c(C(C)C)c(C(=O)c2cc(C#N)cc(C(N)=O)c2)c1CC1CC1 [Example 10, 3-Cyano-5-(5-cyclopropylmethyl-3-isopropyl-6-methyl-2-oxo-1,2-dihydro-pyridine-4-carbonyl)-benzamide] | 
> 7.00 |  | Cc1cc(C#CCO)cc(C(=O)c2c(CC3CC3)c(C)[nH]c(=O)c2C(C)C)c1 [Example 11, 5-(cyclopropylmethyl)-4-(3-(3-hydroxyprop-1-ynyl)-5-methylbenzoyl)-3-isopropyl-6-methylpyridin-2 (1H)-one] | 
> 7.00 |  | Cc1[nH]c(=O)c(C(C)C)c(C(=O)c2cc(C#N)cc(C#CCO)c2)c1CC1CC1 [Example 12, 3-(5-Cyclopropylmethyl-3-isopropyl-6-methyl-2-oxo-1,2-dihydro-pyridine-4-carbonyl)-5-(3-hydroxy-prop-1-ynyl)-benzonitrile] | 
> 7.00 |  | Cc1cc(C#N)cc(C(=O)c2c(CC3CC3)c(CO)[nH]c(=O)c2C(C)C)c1 [Example 13, 3-(5-Cyclopropylmethyl-6-hydroxymethyl-3-isopropyl-2-oxo-1,2-dihydro-pyridine-4-carbonyl)-5-methyl-benzonitrile] | 
> 7.00 |  | CC(C)c1c(C(=O)c2cc(C#N)cc(C#N)c2)c(CC2CC2)c(CO)[nH]c1=O [Example 14, 5-(5-Cyclopropylmethyl-6-hydroxymethyl-3-isopropyl-2-oxo-1,2-dihydro-pyridine-4-carbonyl)-isophthalonitrile] | 
> 7.00 |  | Cc1cc(C#N)cc(C(=O)c2c(CC3CC3)c(CC#N)[nH]c(=O)c2C(C)C)c1 [Example 15, 3-(6-Cyanomethyl-5-cyclopropylmethyl-3-isopropyl-2-oxo-1,2-dihydro-pyridine-4-carbonyl)-5-methyl-benzonitrile] | 
